Source: US5639773A, “Ocular hypotensive agent” (priority 1993, dated 1997)
Like-named read-outs stand apart in the source and are kept apart here.

How the values were obtained:
[1] = test system: anterior ocular segment of rabbits; conditions: rabbit, in vivo
Method: (§1) Male Japanese albino and pigmented rabbits having no anterior ocular abnormalities were used. One eye received 50 μl of the test drug, the other eye 50 μl of physiological saline as a control. Changes over time in ocular tension were measured. Ocular tension was measured for both eyes using a Pneumatonograph (produced by Alcon) before and 30 minutes and/or 1 hour after instillation. The test drug was (±)-1-(cyclohexyloxycarbonyloxy)ethyl 2-ethoxy-1-[[2'-(1H-tetrazol-5-yl)biphenyl-4-yl]methyl]-1H-benzimidazole-7-carboxylate (hereinafter referred to as Compound 1) as suspended in physiological saline or 0.1 w/v % polysorbate 80 to concentrations of 0.1, 0.5 and 1.0 w/v %. Also performed periodically were macroscopic observation of the anterior ocular segment and measurement of pupil diameter.

[2] = test system: Japanese albino rabbits; conditions: rabbit, in vivo
Method: as §1

[3] = test system: anterior ocular segment of rabbits; conditions: rabbit, in vivo; remark: listed apart in the source
Method: as §1

[4] = test system: pigmented rabbits; conditions: rabbit, in vivo
Method: as §1

[5] = Acute toxicity test, mice; conditions: mouse, in vivo; single oral administration, 4-week-old Jcl:ICR mice (males, females)
Method: (§2) The LD50 of compound 1 exceeded 2,000 mg/kg, as of single oral administration, in 4-week-old Jcl:ICR mice (males, females) and 5-week-old Jcl:Wistar rats (males, females).

[6] = test system: Japanese albino rabbits; assay: Action for lowering intraocular pressure in Japanese albino rabbits (Pneumatonograph); format: in vivo, rabbit; conditions: for Intraocular Pressure 30 minutes after instillation / Intraocular Pressure before instillation: 50 μl; for Intraocular Pressure 30 minutes after instillation / Intraocular Pressure before instillation / Intraocular Pressure difference: n=5; for Intraocular Pressure before instillation: baseline; for Intraocular Pressure difference: 30 minutes after vs before instillation
Method: (§3) The action for lowering intraocular pressure in rabbits
as §1

[7] = test system: pigmented rabbits; assay: Action for lowering intraocular pressure in pigmented rabbits (Pneumatonograph); format: in vivo, rabbit; conditions: for Intraocular Pressure 1 hour after instillation / Intraocular Pressure 30 minutes after instillation / Intraocular Pressure before instillation: 50 μl; for Intraocular Pressure before instillation: baseline; for ocular tension (result in words): suspended in 0.1 w/v % polysorbate 80
Method: as §3, §1

[8] = Acute toxicity test, rats; conditions: rat, in vivo; single oral administration, 5-week-old Jcl:Wistar rats (males, females)
Method: as §2

[9] = 0.1 w/v %, suspended in physiological saline
[10] = 0.5 w/v %, suspended in physiological saline
[11] = 0.1 w/v %, suspended in 0.1 w/v % polysorbate 80, n=6
[12] = 1.0 w/v %, suspended in 0.1 w/v % polysorbate 80, n=7

With `CCOc1nc2cccc(C(=O)OC(C)OC(=O)OC3CCCCC3)c2n1Cc1ccc(-c2ccccc2-c2nnn[nH]2)cc1` (racemic) [Compound 1, (±)-1-(cyclohexyloxycarbonyloxy)ethyl 2-ethoxy-1-[[2'-(1H-tetrazol-5-yl)biphenyl-4-yl]methyl]-1H-benzimidazole-7-carboxylate] the “macroscopic abnormalities in the anterior ocular segment” value [1] was “no macroscopic abnormalities were noted”, the “change in pupil diameter” value [2] was “Nor was there any change in pupil diameter” and the “macroscopic abnormalities in the anterior ocular segment” value [3] was “no macroscopic abnormalities were noted”. The “change in pupil diameter” value [4] was “Nor was there any change in pupil diameter”, the LD50 [5] was > 2000 mg/kg and the “Intraocular Pressure 30 minutes after instillation” value (from here on “Intraocular Pressure 30 minutes”) [6, 9] was 16.3 ± 1.16 mmHg. The “Intraocular Pressure before instillation” value [6, 9] was 17.8 ± 0.80 mmHg, the “Intraocular Pressure difference” value ([6]; 0.1 w/v %) was -1.5 mmHg and the “Intraocular Pressure 30 minutes” value [6, 10] was 16.0 ± 0.76 mmHg. For the same compound, the “Intraocular Pressure before instillation” value [6, 10] was 18.2 ± 0.60 mmHg, the “Intraocular Pressure difference” value ([6]; 0.5 w/v %) was -2.2 mmHg and the “Intraocular Pressure 30 minutes” value ([6]; 1.0 w/v %, suspended in physiological saline, *p < 0.05 vs before instillation) was 15.0 ± 0.47 mmHg. For the same compound, the “Intraocular Pressure before instillation” value ([6]; 1.0 w/v %, suspended in physiological saline) was 18.7 ± 0.44 mmHg, the “Intraocular Pressure difference” value ([6]; 1.0 w/v %) was -3.7 mmHg and the “ocular tension (result in words)” value ([6]; by 30 minutes after instillation, 0.1, 0.5 and 1.0 w/v %, suspended in physiological saline) was “fell dose-dependently”. For the same compound, the “Intraocular Pressure 1 hour after instillation” value [7, 11] was 23.6 ± 0.33 mmHg, the “Intraocular Pressure 30 minutes” value ([7]; 0.1 w/v %, suspended in 0.1 w/v % polysorbate 80, n=6, *p < 0.05 vs before instillation) was 22.0 ± 0.39 mmHg and the “Intraocular Pressure before instillation” value [7, 11] was 24.3 ± 0.25 mmHg. The “ocular tension (result in words)” value ([7]; 0.1 w/v %, 30 minutes after instillation) was “fell greatly”, the “Intraocular Pressure 30 minutes” value [7, 12] was 21.9 ± 0.81 mmHg and the “Intraocular Pressure 1 hour after instillation” value ([7]; 1.0 w/v %, suspended in 0.1 w/v % polysorbate 80, n=7, **p < 0.001 vs before instillation) was 21.4 ± 0.43 mmHg. For the same compound, the “Intraocular Pressure before instillation” value [7, 12] was 24.0 ± 0.29 mmHg, the “ocular tension (result in words)” value ([7]; 1.0 w/v %, one hour after instillation) was “fell greatly” and the LD50 [8] was > 2000 mg/kg.
